Data taken from patent US20070031534A1, “Pet food for reducing food allergy reactions” (priority 2004, published 2007).

Test system: dogs subject to food allergies
Test: Owner-marked itching scores of dogs subject to food allergies fed with the dog food
Format: in vivo
Settings: case No.1, before feeding with the dog food
Procedure: A dog food (dog food for food allergy) composed of raw materials as listed in Table 3 and Table 4 below was prepared according to the above Example 1. Dogs subject to food allergies were fed with this dog food and then the itching scores of these dogs were determined.
The following 2 cases are described in detail. (a) Detailed description of case No.1 (i) Changes (−1) in itching scores

C[C@]12C=CC(=O)C=C1CC[C@@H]1[C@@H]2[C@@H](O)C[C@@]2(C)[C@H]1CC[C@]2(O)C(=O)CO [predonine]
itching on administration of steroid drug: further suppressed
